We go through six compounds from ChEMBL document CHEMBL4308888, “Discovery of novel pyruvate dehydrogenase kinases inhibitors by screening of an in-house small molecule library for anti-lung cancer therapeutics” (Bioorg Med Chem Lett, 2019).

Each structure is given as a SMILES string. The source made the active and inactive calls. The rule behind the calls is not given here.

Data set [1] deals with [Pyruvate dehydrogenase (acetyl-transferring)] kinase isozyme 3, mitochondrial (Homo sapiens, UniProt Q15120). Kind of data set: Binding affinity to SUMO-fused/His-tagged PDK3 (unknown origin) expressed in Escherichia coli by isothermal calorimetric titration analysis.
[Pyruvate dehydrogenase (acetyl-transferring)] kinase isozyme 3, mitochondrial, sequence (Q15120 whole entry, the tested form may be a part): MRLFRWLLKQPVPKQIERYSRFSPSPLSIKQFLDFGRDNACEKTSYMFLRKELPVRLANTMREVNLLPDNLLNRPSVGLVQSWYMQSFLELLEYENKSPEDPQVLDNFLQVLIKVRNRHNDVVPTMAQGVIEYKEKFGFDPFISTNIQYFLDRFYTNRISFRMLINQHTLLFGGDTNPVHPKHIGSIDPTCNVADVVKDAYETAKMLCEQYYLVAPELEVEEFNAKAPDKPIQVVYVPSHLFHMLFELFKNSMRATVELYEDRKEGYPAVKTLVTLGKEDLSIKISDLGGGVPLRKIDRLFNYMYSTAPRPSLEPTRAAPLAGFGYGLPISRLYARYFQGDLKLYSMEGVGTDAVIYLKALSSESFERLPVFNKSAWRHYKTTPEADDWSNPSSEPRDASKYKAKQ
In data set [2] the target is T1, Pyruvate dehydrogenase kinase (Homo sapiens) (UniProt Q15119+Q15120+Q16654+Q15118). The data set is described as follows: Inhibition of PDK in human NCI-H1975 cells assessed as reduction in phosphorylated S293 PDC E1 level at 10 uM by ELISA. Type of data set: cell-based.
Data set [3] deals with T1, Pyruvate dehydrogenase kinase (Homo sapiens). Kind of data set: Inhibition of PDK in human NCI-H1975 cells assessed as switch of pyruvate metabolism from lactate production to oxidative phosphorylation by measuring increase in ROS production at 1 to 10 uM measured after 4 hrs by DCFH-DA dye based assay. Type of data set: cell-based.
Data set [4] concerns the target T2, [Pyruvate dehydrogenase (acetyl-transferring)] kinase isozyme 1, mitochondrial (Homo sapiens, UniProt Q15118). Kind of data set: Inhibition of PDK1 (unknown origin) using PDH E1 as substrate measured after 30 mins by kinase-glo assay.
In data set [5] the target is T1, Pyruvate dehydrogenase kinase (Homo sapiens). The data set is described as follows: Inhibition of PDK in human NCI-H1975 cells assessed as reduction in phosphorylated S293 PDC E1 level by Western blot analysis. Type of data set: cell-based.
For data set [6] the target is unchanged. The data set is described as follows: Inhibition of PDK in human NCI-H1975 cells assessed as switch of pyruvate metabolism from lactate production to oxidative phosphorylation by measuring decrease in lactate production at 1 to 10 uM measured after 4 hrs. Type of data set: cell-based.
For data set [7], the target named is T2, [Pyruvate dehydrogenase (acetyl-transferring)] kinase isozyme 1, mitochondrial. Kind of data set: Binding affinity to SUMO-fused/His-tagged PDK1 (unknown origin) expressed in Escherichia coli by isothermal calorimetric titration analysis.
Data set [8] shares this target. The data set is described as follows: Potency index, ratio of DCA EC50 to test compound EC50 for inhibition of PDK1 (unknown origin).
Data set [9] has as its system NCI-H1975. Kind of data set: Antiproliferative activity against human NCI-H1975 cells assessed as reduction in cell viability at 10 uM after 72 hrs by MTT assay. The class given is functional, cell-based.
Data set [10] deals with [Pyruvate dehydrogenase (acetyl-transferring)] kinase isozyme 2, mitochondrial (Homo sapiens, UniProt Q15119). Kind of data set: Binding affinity to SUMO-fused/His-tagged PDK2 (unknown origin) expressed in Escherichia coli by isothermal calorimetric titration analysis.
Data set [11] has as its target T2, [Pyruvate dehydrogenase (acetyl-transferring)] kinase isozyme 1, mitochondrial. Kind of data set: Inhibition of PDK1 (unknown origin) at 10 uM using PDH E1 as substrate measured after 30 mins by kinase-glo assay relative to control.
Data set [12] has as its system NCI-H1975. The data set is described as follows: Antiproliferative activity against human NCI-H1975 cells assessed as reduction in cell viability after 72 hrs by MTT assay. The class given is functional, cell-based. The settings on record: NCI-H1975, 72 h.
Data set [13] concerns A549. The data set is described as follows: cells. The settings on record: Homo sapiens, A549, 72 h.
Description: Antiproliferative activity against human A549 cells assessed as reduction in cell viability after 72 hrs by MTT assay
Data set [14] deals with [Pyruvate dehydrogenase (acetyl-transferring)] kinase isozyme 4, mitochondrial (Homo sapiens, UniProt Q16654). Kind of data set: Binding affinity to SUMO-fused/His-tagged PDK4 (unknown origin) expressed in Escherichia coli by isothermal calorimetric titration analysis.
[Pyruvate dehydrogenase (acetyl-transferring)] kinase isozyme 4, mitochondrial, sequence (Q16654 whole entry, the tested form may be a part): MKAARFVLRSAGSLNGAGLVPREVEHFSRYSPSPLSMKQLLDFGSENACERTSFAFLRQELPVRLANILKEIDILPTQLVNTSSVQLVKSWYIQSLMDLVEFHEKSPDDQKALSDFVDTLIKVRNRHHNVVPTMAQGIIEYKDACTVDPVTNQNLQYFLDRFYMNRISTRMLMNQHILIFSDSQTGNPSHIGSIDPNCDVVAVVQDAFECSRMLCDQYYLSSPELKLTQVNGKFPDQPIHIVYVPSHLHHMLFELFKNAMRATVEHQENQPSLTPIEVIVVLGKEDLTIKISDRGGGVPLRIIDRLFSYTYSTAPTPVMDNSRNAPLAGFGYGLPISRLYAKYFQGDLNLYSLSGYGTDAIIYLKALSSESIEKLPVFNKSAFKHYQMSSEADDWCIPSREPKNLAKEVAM
Data set [15] has as its target T1, Pyruvate dehydrogenase kinase (Homo sapiens). Kind of data set: Inhibition of PDK in human NCI-H1975 cells assessed as reduction in phosphorylated S293 PDC E1 level by ELISA. Type of data set: cell-based.
The subject of data set [16] is NCI-H1650. The data set is described as follows: Antiproliferative activity against human NCI-H1650 cells assessed as reduction in cell viability after 72 hrs by MTT assay. The class given is functional, cell-based. The settings on record: NCI-H1650, 72 h.
Data set [17] addresses T1, Pyruvate dehydrogenase kinase (Homo sapiens). Kind of data set: Inhibition of PDK in human NCI-H1975 cells assessed as switch of pyruvate metabolism from lactate production to oxidative phosphorylation by measuring increase in oxygen consumption rate measured after 2 hrs. The class given is cell-based.
Data set [18] concerns MRC5. Kind of data set: Cytotoxicity against human MRC5 cells assessed as reduction in cell viability up to 40 uM after 72 hrs by MTT assay. Type of data set: cell-based. The settings on record: mrc5, 72 h.
Data set [19] deals with T2, [Pyruvate dehydrogenase (acetyl-transferring)] kinase isozyme 1, mitochondrial. The settings on record: 10 mM.
Description: Inhibition of PDK1 (unknown origin) at 10 mM using PDH E1 as substrate measured after 30 mins by kinase-glo assay relative to control
The subject of data set [20] is NCI-H1975. Kind of data set: Antiproliferative activity against human NCI-H1975 cells assessed as reduction in cell viability at 20 mM after 72 hrs by MTT assay. The class given is functional, cell-based.

T2 sequence (Q15118 whole entry): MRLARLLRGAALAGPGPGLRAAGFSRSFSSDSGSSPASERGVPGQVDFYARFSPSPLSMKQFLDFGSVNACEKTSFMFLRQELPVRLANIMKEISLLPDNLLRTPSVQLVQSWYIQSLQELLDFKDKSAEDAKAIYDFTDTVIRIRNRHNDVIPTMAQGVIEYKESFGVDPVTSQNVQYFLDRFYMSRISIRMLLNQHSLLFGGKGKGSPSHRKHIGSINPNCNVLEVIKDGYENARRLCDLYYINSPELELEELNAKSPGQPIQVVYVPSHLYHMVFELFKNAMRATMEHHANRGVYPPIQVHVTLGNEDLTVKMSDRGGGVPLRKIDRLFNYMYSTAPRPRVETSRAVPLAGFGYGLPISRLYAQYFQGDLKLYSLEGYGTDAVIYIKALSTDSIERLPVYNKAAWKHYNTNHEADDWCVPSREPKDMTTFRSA

In the case of `OCCn1nc(C2CCOCC2)nc1[C@@H]1CCCCN1Cc1ccccc1`, the Kd worked out at 2.1 µM in [1], 0.89 µM in data set [7], 3.7 µM in data set [10] and 7.9 µM in data set [14]. In addition, the inhibition entry in [2], in [3] and in data set [6] was “Active” in each case. For the same compound, in data set [4], the EC50 came to 0.42 µM. The inhibition result in data set [5] is “Dose-dependent effect”; in [11], 93.7%; in data set [15], “Dose-dependent effect”; in [17], “Dose-dependent effect”. Further, the Ratio EC50 in data set [8] is above 1000. Further, the outcome in [9] was Active. The half-maximal inhibitory concentration (IC50) in data set [12] was 3.32 µM; in data set [13] it was 5.9 µM; in [16], 7.6 µM. In data set [18], the Activity result is given as “Non-Toxic”.

With `CC(C)=CCN1CCN(Cc2c(C)n(C)n(-c3ccccc3)c2=O)C[C@@H]1CCO`, the figures for the Kd in [1], in data set [7] and in data set [10] were 8.9 µM, 10.5 µM and 15.9 µM, respectively. For the same compound, the inhibition entry in data set [2] was “Active”. For the same compound, it took 4.64 µM to reach a half-maximal effect in data set [4] (EC50). Besides, the Ratio EC50 in data set [8] is above 1000. The compound further registered an inhibition in [11] of 86.9%.

As for `O=C([O-])C(Cl)Cl.[Na+]` [SODIUM DICHLOROACETATE], the inhibition in [19] stood at 64.2%. Further, in [20], the outcome was Active. Further, the IC50 in data set [16] was found to be 16300 µM.

On to `O=C(c1ccccc1)C(Cl)Cl`, for which, in data set [9], the result was Active. Besides, the IC50 in [13] stood at 4.7 µM; in data set [16], 7.9 µM.

On to `CN(Cc1cnc2ccccn12)C(=O)c1cc(COc2ccc3c(c2)OCO3)[nH]n1`, for which the Kd in data set [1] was 4.7 µM; in [7], 1.1 µM; in data set [10] it was 2 µM; in data set [14], 2.6 µM. The inhibition entry in data set [2] was “Active”. Also, a half-maximal effect in data set [4] (EC50) was put at 0.5 µM. The inhibition result in data set [5] is “Dose-dependent effect”; in [11], 95.6%; in data set [15], “Dose-dependent effect”. Besides, the Ratio EC50 in data set [8] is above 1000. In addition, the result in data set [9] was Active. Besides, the IC50 is 17.8 µM in data set [13] and 15.7 µM in [16]. Also, the Activity result in data set [18] is listed as “Non-Toxic”.

On to `CCCCN(Cc1ccncc1)C(=O)c1cc(-c2ccccc2O)n[nH]1`, for which the Kd worked out at 7.8 µM in data set [1], 5.8 µM in data set [7], 2.9 µM in data set [10] and 10.7 µM in data set [14]. In addition, the inhibition result in data set [2] was “Active”. It took 1.99 µM to reach a half-maximal effect in data set [4] (EC50). Moreover, in [8], the Ratio EC50 is above 1000. Besides, the inhibition in [11] turned out to be 89.6%.
